Source: patent US20240390301A1, “COMBINATIONS OF PERIPHERAL 5-HT2A RECEPTOR ANTAGONISTS AND CENTRAL 5-HT2A RECEPTOR AGONISTS” (priority 2021, published 2024)
Like-named read-outs stand apart in the source and are kept apart here.

Tests used:
[1] = test system: DOPR-induced head twitch response (HTR); test: Blockade of DOPR-induced head twitch response (HTR) in rats; type: in vivo, Sprague-Dawley rats; conditions: for Attenuation of the HTR to DOPR (significance vs. vehicle): all doses tested, SC, Dunnett's multiple comparison test; for Mean HTR (SEM): 10 min before DOPR 0.32 mg/kg SC, HTRs counted for 20 min
Description: FIG. 1 graphically depicts in a bar graph the effect of xylamidine pre-treatment on the HTR induced by DOPR in the rat. The indicated doses of xylamidine or vehicle were administered SC. followed 10 minutes later by DOPR (0.32 mg/kg, SC), and HTRs were counted for 20 minutes immediately after DOPR administration (10-30 min after administration of xylamidine). […] In FIG. 2, the effect of BW501C67 pre-treatment on the HTR induced by DOPR in the rat is depicted graphically in a bar graph. […] FIG. 4 graphically depicts in a bar graph the effect of sarpogrelate pre-treatment on the HTR induced by DOPR in the rat.
Animals. Adult male Sprague-Dawley rats aged 8 weeks (body weight ˜270 g) were used in these experiments. Animals were pair housed under controlled temperatures and 12-hour light/dark cycles (lights on between 07:00-19:00 h), with ad libitum food and water. The protocol was approved by the Eurofins Advinus Institutional Animal Care and Use Committee. This study was carried out in strict accordance with the recommendations in the Guide for the Care and Use of Laboratory Animals of the National Institutes of Health. All efforts were made to minimize suffering.
Drugs and Drug Administration. Test compounds were prepared as described above or commercially obtained. Drugs were dissolved in their respective vehicle solutions (see Table 4) and administered subcutaneously (SC) in a volume of 5 mL/kg (except for the experiment with sarpogrelate, where a volume of […] was used). […] The 5-HT2A receptor agonist DOPR was then administered at 1 dose (0.32 mg/kg, SC, in saline, calculated based on the free base) to all animals 10 min after pretreatment with the test peripheral antagonist or vehicle.
Procedure. Rats were administered one dose (0.01 to 100 mg/kg, SC, as indicated) of a test peripheral antagonist (or vehicle) 10 mins prior to administration of DOPR (0.32 mg/kg, SC). After administration of DOPR, rats were immediately placed into a small open field for behavioral observation.
Statistical analysis. The data points shown in Table 4 are the mean±standard error of the mean (SEM). Statistical comparisons were performed between each peripheral antagonist treatment group and its respective vehicle treatment group using Dunnett's multiple comparison test. Analysis was performed using GraphPad Prism 6.

5-HT2B receptor = molecular target: T1, 5-HT2B receptor (Homo sapiens, UniProt P41595); test: FLIPR Ca2+ flux functional assay, antagonist activity at 5-HT2B; type: cell-based; conditions: for 5-HT2B % Inh @ Max Dose: at max dose
T1 construct: host or cells: HEK293 (stably transfected)
Description: (§1) Key peripheral 5-HT2A receptors antagonists were tested for antagonist activity at several serotonin (5-HT) receptor subtypes (5-HT2A and 5-HT2B) using Ca^2+ flux functional assays, with the results summarized in Table 3. […] The ability to block peripheral 5-HT2B receptors in addition to 5-HT2A receptors is advantageous in the context of the present disclosure, as such blockade is likely to mitigate the potential cardiac valvulopathy induced by 5-HT2B receptor agonists. This is expected to be a potential side effect of many classical psychedelics, which activate 5-HT2B receptors as a secondary target. Accordingly, xylamidine and BW501C67 are preferred over Compound 14a for use in combination with 5-HT2A receptor agonists that also activate 5-HT2B receptors, since they also block this important off target. When taken together with the binding data presented above, xylamidine and BW501C67 appear to be potent pan-antagonists for 5-HT2-type receptors, whereas Compound 14a is selective for 5-HT2A receptors specifically.
(§2) Functional Assays at 5-HT2A and 5-HT2B. Antagonist activity at 5-HT2A and 5-HT2B receptors was determined using a FLIPR Ca^2+ flux assay at WuXi AppTec (Hong Kong) Limited according to their standard protocols. Briefly, stably transfected HEK293 cells expressing the receptor of interest were grown and plated in a 384 well plate and incubated at 37° C. and 5% CO2 overnight. This was combined with a fluorescent dye (Fluo-4 Direct™) to make a final assay concentration of 2.5 mM. Compounds were diluted 1:3.16 for 10 points and 750 nL was added to a 384 well compound plate using ECHO along with 30 μL assay buffer. The fluorescent dye was then added to the assay plate along with assay buffer to a final volume of 40 μL. The cell plate was incubated for 50 min at 37° C. and 5% CO2 and placed into the FLIPR Tetra along with the compound plate. 10 μL of references and compounds were then transferred from the compound plate into the cell plate and the fluorescent signal was read. Next, 10 μL of a 6× solution of 5-carboxamidotryptamine (5-CT) at the calculated EC80 was added and the fluorescent signal read again. Finally, the Max-Min signal was calculated for the runs with and without agonist.

5-HT2A receptor = molecular target: T2, 5-HT2A receptor (Homo sapiens, UniProt P28223); test: FLIPR Ca2+ flux functional assay, antagonist activity at 5-HT2A; type: cell-based; conditions: for 5-HT2A % Inh @ Max Dose: at max dose
T2 construct: WuXi AppTec (Hong Kong) Limited (contract laboratory that ran the assay)
Description: as §1, §2

in vivo = type: in vivo, rat; conditions: for Peripheral restriction / brain penetration: from free brain:free plasma ratios; for Kp at 0.167 h / Kp at 0.5 h: male, Sprague Dawley, rat, in vivo; for Kp at 0.167 h: read-out: Free Brain:Free Plasma (0.167 h); for Kp at 0.5 h: read-out: Free Brain:Free Plasma (0.5 h)
Description: The ratio of free brain concentration to free plasma concentration was calculated at 0.167 h and 0.5 h post administration for each compound using the data presented in the above examples and the following formula.
A smaller value for the free brain: free plasma ratio indicates greater peripheral restriction and therefore, better suitability for the methods of the present disclosure.

[2] = Metabolic stability in rat liver microsomes; type: in vitro ADME; conditions: for half-life at 1 μM / microsomal CLint at 1 μM: both sexes, rat, microsomes, pH 7.4
Description: RLM Stability. Pooled RLM from adult male and female donors (Xenotech R1000) were used. Microsomal incubations were carried out in multi-well plates. Liver microsomal incubation medium consisted of PBS (100 mM, pH 7.4), MgCl2 (1 mM), and NADPH (1 mM), with 0.50 mg of liver microsomal protein per mL. Control incubations were performed by replacing the NADPH-cofactor system with PBS. Test compounds (1 μM, final solvent concentration 1.0%) were incubated with microsomes at 37° C. with constant shaking. Six time points over 60 minutes were analyzed, with 60 μL aliquots of the reaction mixture being drawn at each time point. The reaction aliquots were stopped by adding 180 μL of cold (4° C.) acetonitrile containing 200 ng/mL tolbutamide and 200 ng/ml labetalol as internal standards (IS), followed by shaking for 10 minutes, and then protein sedimentation by centrifugation at 4,000 rpm for 20 minutes at 4° C. Supernatant samples (80 μL) were diluted with water (240 μL) and analyzed for parent compound remaining using a fit-for-purpose liquid chromatography-tandem mass spectrometry (LC-MS/MS) method.
Data Analysis. The elimination constant (kel), half-life (t1/2), and intrinsic clearance (CLint) were determined in a plot of […] versus time, using linear regression analysis.

[3] = antagonist activity, Ca2+ flux, HEK293 cells, agonist at EC80
[4] = RLM, 1 μM, 0.50 mg protein per mL, NADPH
[5] = antagonist activity, Ca2+ flux, HEK293 cells, agonist at EC80, read-out: 5-HT2B IC50
[6] = antagonist activity, Ca2+ flux, HEK293 cells, agonist at EC80, read-out: 5-HT2A IC50
[7] = calculated using 10 mg/kg PK data

T1 sequence (P41595 whole entry): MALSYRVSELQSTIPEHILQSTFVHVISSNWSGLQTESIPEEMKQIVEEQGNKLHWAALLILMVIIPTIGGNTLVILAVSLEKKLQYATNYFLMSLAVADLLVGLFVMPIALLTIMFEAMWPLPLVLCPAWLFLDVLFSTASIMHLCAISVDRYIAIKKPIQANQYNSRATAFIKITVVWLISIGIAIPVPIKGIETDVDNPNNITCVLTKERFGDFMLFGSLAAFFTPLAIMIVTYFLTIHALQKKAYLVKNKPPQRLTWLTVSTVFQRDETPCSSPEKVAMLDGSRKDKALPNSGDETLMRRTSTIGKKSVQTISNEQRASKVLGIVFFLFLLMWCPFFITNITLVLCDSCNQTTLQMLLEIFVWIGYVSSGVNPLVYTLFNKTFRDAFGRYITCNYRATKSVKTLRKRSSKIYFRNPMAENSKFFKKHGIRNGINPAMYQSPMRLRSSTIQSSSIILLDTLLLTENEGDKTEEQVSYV
T2 sequence (P28223 whole entry): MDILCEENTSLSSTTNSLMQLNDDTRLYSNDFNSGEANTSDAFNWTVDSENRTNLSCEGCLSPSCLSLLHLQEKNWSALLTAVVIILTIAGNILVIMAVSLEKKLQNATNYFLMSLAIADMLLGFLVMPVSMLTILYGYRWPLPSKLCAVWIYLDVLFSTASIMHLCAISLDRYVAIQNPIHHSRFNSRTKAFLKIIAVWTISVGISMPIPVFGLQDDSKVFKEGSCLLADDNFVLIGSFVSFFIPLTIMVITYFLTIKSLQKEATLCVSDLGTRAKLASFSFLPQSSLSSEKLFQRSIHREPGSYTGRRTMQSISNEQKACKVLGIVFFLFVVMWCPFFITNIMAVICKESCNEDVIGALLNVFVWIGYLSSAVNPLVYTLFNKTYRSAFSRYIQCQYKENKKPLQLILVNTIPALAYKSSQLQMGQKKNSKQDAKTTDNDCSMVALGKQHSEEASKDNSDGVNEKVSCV

| Structure (SMILES) | Attenuation of the HTR to DOPR (significance vs. vehicle) [1] | Mean HTR (SEM) ([1]; antagonist 0.01 mg/kg SC) | Mean HTR (SEM) ([1]; antagonist 0.1 mg/kg SC) | Mean HTR (SEM) ([1]; antagonist 1 mg/kg SC) | Mean HTR (SEM) ([1]; antagonist 10 mg/kg SC) | 5-HT2B IC50 (nM) (5-HT2B receptor; [3]) | 5-HT2B % Inh @ Max Dose (5-HT2B receptor; antagonist activity, Ca2+ flux) | 5-HT2A % Inh @ Max Dose (5-HT2A receptor; antagonist activity, Ca2+ flux) | Peripheral restriction / brain penetration (in vivo) | Kp at 0.167 h (in vivo; calculated using 1 mg/kg data) | Kp at 0.5 h (in vivo; calculated using 1 mg/kg data) | Metabolic stability in RLM [2] | half-life at 1 μM [2, 4] | microsomal CLint at 1 μM [2, 4] | IC50 (5-HT2B receptor; [5]) | IC50 (5-HT2A receptor; [6]) | Kp at 0.167 h (in vivo; [7]) | Kp at 0.5 h (in vivo; [7]) | other results |
| --- | --- | --- | --- | --- | --- | --- | --- | --- | --- | --- | --- | --- | --- | --- | --- | --- | --- | --- | --- |
| CC(CNC(=N)CNc1ccccc1)Oc1cccc(Cl)c1.O=CO (centres unmarked) [BW501C67, N-(2-(3-chlorophenoxy)propyl)-2-(phenylamino)acetimidamide formate] | not statistically significant | 5.83 | 2.67 | 5.33 | 4.33 | high potency antagonism | 99.74% | 100.13% | by far the most peripherally restricted compound | 0.0032 | 0.0052 | poor metabolic stability | 2.1 min | 658 µL/min/mg | – | – | – | – | IC50 (5-HT2B receptor): 21.6 nM; IC50 (5-HT2A receptor): 14.5 nM |
| CC(C)COc1ccc(CNC(=O)N(Cc2ccc(F)cc2)C2CCN(C(=O)CC[C@H](N)C(=O)O)CC2)cc1 [Compound 14a, (S)-2-amino-5-(4-(1-(4-fluorobenzyl)-3-(4-isobutoxybenzyl)ureido)piperidin-1-yl)-5-oxopentanoic acid] | statistically significant attenuation of the HTR | 2.50 | 2.00 | 2.17 | 1.83 | – | −12.17% | 100.01% | good peripheral restriction | 0 | 0 | highly stable | > 145 min | < 9.6 µL/min/mg | > 10000 nM | 297 nM | 0.048 | 0.035 | – |
| COc1cccc(CCc2ccccc2OCC(CN(C)C)OC(=O)CCC(=O)O)c1 (centres unmarked) [sarpogrelate] | statistically significant attenuation of the HTR | – | – | 2.33 | 1.33 | – | – | – | substantial brain penetration | – | – | – | – | – | – | – | 0.37 | 0.29 | Mean HTR (SEM) ([1]; antagonist 3 mg/kg SC): 1.83; Mean HTR (SEM) ([1]; antagonist 30 mg/kg SC): 1.33; Mean HTR (SEM) ([1]; antagonist 100 mg/kg SC): 0.33 |
| COc1cccc(C(=O)Nc2ccc(OCCN3CCOCC3)c(-c3ccnn3C)c2)c1 [temanogrel] | – | – | – | – | – | – | – | – | substantial brain penetration | – | – | – | – | – | – | – | 0.33 | 0.34 | – |
| COc1cccc(OC(C)CNC(=N)Cc2cccc(C)c2)c1.O=C(O)C(F)(F)F (centres unmarked) [xylamidine, N-(2-(3-methoxyphenoxy)propyl)-2-(m-tolyl) acetimidamide trifluoroacetate] | not statistically significant | 7.33 | 5.00 | 3.17 | 2.83 | high potency antagonism | 99.68% | 99.81% | – | – | – | poor metabolic stability | – | – | 13.3 nM | 24 nM | – | – | Free Brain:Free Plasma (0.167 h) (in vivo; calculated using 1 mg/kg data): 0.018; Free Brain:Free Plasma (0.5 h) (in vivo; calculated using 1 mg/kg data): 0.052; Free Brain:Free Plasma (0.167 h) (in vivo; [7]): 0.018; Free Brain:Free Plasma (0.5 h) (in vivo; [7]): 0.018; Clint [2, 4]: 709.1 µL/min/mg; t1/2 [2, 4]: 2.0 min |
